According to ChEMBL document CHEMBL1135037 (Bioorg Med Chem Lett, 2002):
pIC50: −log10 of the molar value.

Tests used:
[1] = Inhibitory concentration against PP1 was determined
[2] = target: T1, Serine-threonine protein phosphatase 2A regulatory subunit (Gallus gallus) (UniProt Q8AWE3); test: Inhibition against PP2A at 100 uM
T1 sequence (whole entry): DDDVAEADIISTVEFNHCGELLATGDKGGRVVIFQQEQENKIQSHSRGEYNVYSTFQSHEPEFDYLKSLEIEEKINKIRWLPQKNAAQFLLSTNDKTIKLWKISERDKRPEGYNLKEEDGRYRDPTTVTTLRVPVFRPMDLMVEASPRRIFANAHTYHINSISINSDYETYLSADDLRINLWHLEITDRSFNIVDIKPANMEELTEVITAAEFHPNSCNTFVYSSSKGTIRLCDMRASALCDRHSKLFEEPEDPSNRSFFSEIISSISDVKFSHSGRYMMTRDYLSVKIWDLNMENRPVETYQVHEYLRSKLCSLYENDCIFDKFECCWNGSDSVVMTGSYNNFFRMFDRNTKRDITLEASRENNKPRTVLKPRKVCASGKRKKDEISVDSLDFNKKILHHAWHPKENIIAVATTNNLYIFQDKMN

[3] = Inhibition against PP1 at 100 uM
[4] = target: T2, Serine-threonine protein phosphatase 2A regulatory subunit (Gallus gallus, UniProt Q8AWE3); test: Concentration required to inhibit the action of protein phosphatase 2A
T2 sequence (Q8AWE3 whole entry): T1 sequence (whole entry)

Homo sapiens = organism: Homo sapiens; test: Selectivity against Protein phosphatase 2A
[5] = Selectivity was calculated against protein phosphatase 1
[6] = Selectivity was evaluated against Protein phosphatase 1

Row | Compound | pIC50 [1] | inhibition [2] [%] | inhibition [3] [%] | pIC50 [4] | Selectivity (Homo sapiens) | Selectivity [5] | Selectivity [6]
1 | C[C@@]12C(=O)OC(=O)[C@]1(C)[C@H]1CC[C@@H]2O1 [CANTHARIDIN] | 6.80 | – | – | – | – | – | –
2 | O=C1OC(=O)C2C1[C@@H]1CC[C@H]2O1 (some centres not stated) | 5.62 | 97 | 90 | – | – | – | –
3 | C[C@@](O)(/C=C/[C@H]1CC=CC(=O)O1)[C@@H](C[C@@H](O)\C=C/C=C\C=C\CO)OP(=O)(O)O [FOSTRIECIN SODIUM] | 3.89 | – | – | 8.47 | > 40000 | – | –
4 | COC[C@@H]([C@H](O)[C@H](O)C(=O)NCC[C@H](C)c1nc(/C=C/C[C@@H]2O[C@]3(C[C@@H](O)[C@@H]2C)O[C@H]([C@H](C[C@H](O)[C@H](C)[C@H](O)[C@H](C)/C=C(C)/C(C)=C/C=C/C(C)=C\C#N)OC)[C@H](OP(=O)(O)O)C3(C)C)co1)N(C)C [CALYCULIN A] | – | – | – | 8.70 | – | – | –
5 | COC(=O)C1C(C(=O)OC)[C@H]2C=C[C@@H]1O2 (some centres not stated) | 4.30 | 6 | 46 | < 2.70 | – | > 40 | –
6 | O=C1NC(=O)C2C1[C@@H]1C=C[C@H]2S1 (some centres not stated) | 4.90 | 30 | 87 | 3.37 | – | – | 34
7 | O=C1OC(=O)C2C1[C@@H]1C=C[C@H]2S1 (some centres not stated) | – | 0 | 0 | – | – | – | –
8 | COC(=O)C1C(C(=O)OC)[C@H]2C=C[C@@H]1S2 (some centres not stated) | – | 3 | 3 | – | – | – | –
